Literature values as cited in patent US10463707B2, “Process for preparing herbal extracts” (MOLEAC PTE LTD., priority 2015, dated 2019).

Details: Chen et al. Planta Med 2009

Structure (SMILES): C/C=C\c1cc(OC)c(OC)cc1OC [beta asarone]
- Safe limits for beta asarone consumption: 0.115 mg per person per day
- Safe limits for beta asarone consumption (equivalent) (equivalent to the per-person limit): 0.002 mg/kg body weight/day
